Here are results for one compound from US20170027896A1, “METHODS AND COMPOSITIONS FOR THE TREATMENT OF VASCULAR MALFORMATION” (IFOM - FONDAZIONE ISTITUTO FIRC DI ONCOLOGIA MOLECOLARE, priority 2014, published 2017).

“Also recorded” adds a separate entry of the source.

Assay [1] concerns vascular malformations in the retina of CCM3-ECKO mice. Put plainly: Retina vascular lesions and vein diameter in CCM3-ECKO mice. The assay is classed as in vivo, mouse. The text has this:
The CCM3-flox/flox mice were generated at TaconicArtemis (Koeln, Germany). Two P-lox sequences were inserted that flank exons 4 and 5 of the murine CCM3 gene, to produce a loss-of-function mutation after excision by Ore recombinase. These CCM3-flox/flox mice were bred with Cdh5(PAC)-CreERT2 mice (Wang et al, 2010) for tamoxifen-inducible endothelial-cell-specific expression of Ore-recombinase and CCM3 gene recombination. The CCM3-flox/flox-Cdh5(PAC)-CreERT2 mice were further bred with BAT-gal mice (Maretto et al, 2003) to monitor the activation of b-catenin transcription signaling, and with Rosa 26-Enhanced […] Fluorescent Protein (EYFP) (Rosa26EYFP) mice (Srinivas et al, 2001) to monitor the expression of Ore-recombinase through the expression of EYFP. Tamoxifen (Sigma) was dissolved in corn oil and 10% ethanol (at 10 mg/ml), and then diluted 1:5 in corn oil before single intragastric administration to dpn 1-2 pups (35 mg/kg body weight), as described in^14. The control (wild-type) mice included CCM3-flox/flox-Cdh5(PAC)-CreERT2-BAT-gal mice treated with the vehicle used to dissolve the tamoxifen (corn oil plus 2% ethanol), and CCM3^+/+-Cdh5(PAC)-CreERT2-BAT-gal mice treated with tamoxifen.
Brains and eyes from mice pups were fixed in 3% paraformaldehyde immediately after dissection, and this fixing was continued overnight at 4° C. […]

Assay [2] has as its system CCM3-knockout endothelial cell line. Put plainly: rtPCR of b-catenin target gene and progenitor/EndMT markers in CCM3-knockout endothelial cell line. The assay is classed as cell-based, mouse. To be noted: 48 h; 135 mM sulindac sulfide, 125 mM sulindac sulfone, 200 mM silibinin, 250 mM salinomycin. Here is the method: In some experiments, endothelial cell lines from the lungs of CCM3-flox/flox mice (8-10 weeks old) were immortalized in culture through retroviral expression of polyoma middle T gene^60. […] These cells were then maintained in culture for up to 25 passages without detectable changes in the effects of this CCM3 ablation.
Drugs were added to confluent cells for 48 h before the indicated assays. The final concentrations used were: […] (all from Sigma-Aldrich). As all of these were dissolved in DMSO, control treatment (vehicle) was 0.1% DMSO final concentration, as for drug treatment.
RNA extraction was performed with RNeasy kits (74106; […]). The RNA (1 μg) was reverse transcribed with random hexamers (High Capacity cDNA Archive kits; Applied Biosystems). The cDNA was amplified with TaqMan gene expression assays (Applied Biosystems) using a 7900 HT thermocycler (ABI/Prism). For each sample, the expression levels were determined with the comparative threshold cycle (Ct) method, and normalized to the housekeeping genes encoding 18S and glyceraldehyde-3-phosphate dehydrogenase (GAPDH). For amplification, the following probes (Applied Biosystems) that have been validated to recognize the mouse transcripts in rtPCR were used: Axin2, Nkd1, Lef1, ccnd1, cMyc-Klf4, Ly6a, S100a4, Id1, Cdh2, Acta2, CD44. The probes to identify the CCM3 mRNA transcript were custom designed, as: forward, […] (SEQ ID No. 12); reverse, GCTCTGGCCGCTCAATCA (SEQ ID No. 13); reporter sequence, […] (SEQ ID No. 14).

Assay [3] deals with co-immunoprecipitation complex of b-catenin and VE-cadherin. Nature of the assay: Co-immunoprecipitation and Western blotting of b-catenin and VE-cadherin in CCM3-knockout endothelial line. In kind it is cell-based, mouse. To be noted: association reduced by 35% in vehicle-KO. Here is the method: Drugs were added to confluent cells for 48 h before the indicated assays. The final concentrations used were: […] (all from Sigma-Aldrich). As all of these were dissolved in DMSO, control treatment (vehicle) was 0.1% DMSO final concentration, as for drug treatment. Standard procedures were used to extract and analyze the protein content by Western blotting and immunoprecipitation^46. Nuclear fractionation was as described previously^62.
Background: A western blot detects proteins with antibodies after separation by electrophoresis.

As to `CSc1ccc(/C=C2/C(C)=C(CC(=O)O)c3cc(F)ccc32)cc1` [sulindac sulfide, (Z)-5-Fluoro-2-methyl-1-[4-(methylthio)benzylidene]indene-3-acetic acid], the “vascular malformations in the retina” value in assay [1] (CCM3-ECKO mice, dpn 9) was “inhibited; also recorded: partially normalized”. In assay [1] (CCM3-ECKO, 30 measurements in 14 retinas, vehicle-ECKO 89.5±7.1 mm), the diameter of the most internal tract of the retinal veins (mean±SD) is 35 ± 7.8 µm. Moreover, in assay [2], the “inhibition of transcription of Axin2, Klf4 and S100a4 (rtPCR)” value was “greatest inhibition; also recorded: most effective”. In addition, the “association between b-catenin and VE-cadherin (b-catenin/VE-cadherin ratio)” value in assay [3] was “restored to the level observed in the wild-type cells”.
